# Experimental data: patent US9567301B2, “Pyrrol-1-yl benzoic acid derivatives useful as myc inhibitors” (Whitehead Institute for Biomedical Research, priority 2012, dated 2017)
# pEC50, pIC50: −log10 of the molar value.
# Legend:
# MM1S cells = assay: Cell viability assay (ATPlite), MM1S; assay type: cell-based, human; conditions: for pEC50: cell viability, three days, ATPlite, NA: inactive under assay conditions
# Description: (§1) This assay was used for the H2171 and MM1S cell data shown in Table 2, and for the Jurkat (an immortalized line of human T lymphocyte cells), Ly1 (OCI-Ly1 human non-Hodgkin lymphoma cell line), Ly4 (OCI-Ly4 human non-Hodgkin lymphoma cell line), H2172 (NCI-H2172 human non-small cell lung cancer cell line), and CA-46 (a human Burkitt's lymphoma cell line) cell data shown in Table 3 and FIG. 12. Cells were counted and adjusted to 60,000 cells/mL. Using a Biotek EL406, 50 μL of cells are media were distributed into 384 well white plates from Thermo. Immediately after plating, compound in DMSO was distributed to plates. For large plate sets, cells were returned to 37° C. incubator while not in use.
# (§2) Compounds were added to plates using a 100 nL 384 well pin transfer manifold on a Janus workstation. Stocks were arrayed in 10 point quadruplicate dose response in DMSO stock in 384 well Greiner compound plates. After addition of compound, plates were incubated for three days in a 37° C. incubator.
# (§3) Cell viability was read out using ATPlite from Perkin Elmer. Plates were removed from the incubator and brought to room temperature prior to use. Lyophilized powder was resuspended in lysis buffer and diluted 1:2 with DI water. 25 μL of this solution was added to each well using the Biotek liquid handler. Plates were sealed with adherent aluminum seals prior to vortexing and spinning down at 1000 g for 1 minute. Plates were incubated for 15 minutes at room temperature before signal was read on an Envision Plate Reader.
# c-Myc/Max/Ebox DNA = c-Myc/Max/Ebox DNA (Homo sapiens, UniProt P01106); assay: c-Myc/Max/Ebox DNA AlphaScreen assay; assay type: binding; set-up: An exemplary assay uses full-length human c-Myc and Max proteins; his6 (cleaved yes); made in house; conditions: c-Myc/Max/Ebox DNA AlphaScreen; NA: inactive under assay conditions; read-out: Biochemical IC50
# Description: This protocol was used to generate the biochemical data in Table 2 and FIG. 11. The primary AlphaScreen assay is amenable to 384-well and 1536-well plate formats for HTS. Human his6-c-Myc and his6-Max were used with biotinylated DNA containing a single Ebox sequence (biotin[…]) purchased from MWG Operon. Free c-Myc was generated from his6-c-Myc through thrombin cleavage of the his6 tag. For 384-well plate assays, 10 μL of a 2× solution of free c-Myc (25 nM final), Ni++-coated Acceptor Bead (25 μg/ml final), and biotinylated Ebox oligo (10 nM final) were added to 384-well plates with a Biotek EL406 liquid handler. 100 nL of compounds from stock plates were added by pin transfer using a Janus Workstation (PerkinElmer), allowing the compounds to interact with c-Myc prior to c-Myc binding with Max. In the current assay, DMSO was not allowed to exceed 2% v/v of the assay. 10 μl of 2× master mix containing streptavidin-coated donor beads (25 μg/ml final) and his6-Max (1.25 nM final) were added. AlphaScreen measurements were performed on an Envision 2104 (PerkinElmer) utilizing the manufacturer's protocol. The assay can also be performed in 1536-plate format with 8 μL total volume using two 4 μL additions (instead of […] and 10 μL respectively).
# Assays are performed with minor modifications from the manufacturer's protocol (PerkinElmer). Both master mixes were made in room temperature assay buffer (50 mM HEPES, 150 mM NaCl, 0.2% w/v BSA, 0.02% w/v Tween20, 40 μg/ml glycogen, 500 μM DTT, pH 8.0, DTT and glycogen added fresh). Alpha beads were added to respective master solutions and wrapped in foil. All subsequent steps were performed in low light conditions. Solution 1: 2× solution of components with final concentrations of cMyc (25 nM), Ni-coated Acceptor Bead (25 μg/ml), and biotinylated Ebox oligo (10 nM). Solution 2: 2× solution of streptavidin-coated donor beads (25 μg/ml final) and his6-Max (1.25 nM final). […] Solution 1 were added to 384-well plate (AlphaPlate-384, PerkinElmer) with Biotek EL406 liquid handler and the plates were centrifuged at 1000 rpm for 1 minute. 100 nL of compounds from stock plates were added by pin transfer using a Janus Workstation. 10 μL Solution 2 were added with the liquid handler. Plates were sealed with foil to block light exposure and prevent evaporation. Plates were centrifuged at 1000 rpm for 1 minute followed by 2 hour incubation. AlphaScreen measurements were performed on an Envision 2104 utilizing the manufacturer's protocol. Excitation was at 680 nm for donor bead release of singlet oxygen and emission was read with a bandpass filter from 520-620 nm. Glycogen: Roche Diagnostics #10901393001. Plate 1536: Perkin Elmer, 6004350. Plate 384: Perkin Elmer, 6005350. Nickel-His Alpha Beads: 6760619R.
# H2171 cells = assay: Cell viability assay (ATPlite), H2171; assay type: cell-based, human; conditions: cell viability, three days, ATPlite, NA: inactive under assay conditions
# Description: as §1, §2, §3
# Chain of c-Myc/Max/Ebox DNA (P01106 16-454): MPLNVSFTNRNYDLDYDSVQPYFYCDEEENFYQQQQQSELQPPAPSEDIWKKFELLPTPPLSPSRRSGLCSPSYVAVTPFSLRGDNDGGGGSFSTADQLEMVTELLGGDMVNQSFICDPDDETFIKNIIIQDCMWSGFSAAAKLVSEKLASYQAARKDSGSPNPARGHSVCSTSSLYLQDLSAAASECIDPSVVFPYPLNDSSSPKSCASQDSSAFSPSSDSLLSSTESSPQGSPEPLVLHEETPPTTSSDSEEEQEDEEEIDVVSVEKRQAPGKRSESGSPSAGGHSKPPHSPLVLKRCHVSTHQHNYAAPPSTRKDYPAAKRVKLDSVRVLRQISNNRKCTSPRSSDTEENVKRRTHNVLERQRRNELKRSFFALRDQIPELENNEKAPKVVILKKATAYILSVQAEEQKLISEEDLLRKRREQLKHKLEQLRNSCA
Structure (SMILES),"pEC50 (MM1S cells; Homo sapiens, MM1.S, 72 h)",pIC50 (c-Myc/Max/Ebox DNA),"pEC50 (H2171 cells; Homo sapiens, NCI-H2171, 72 h)",pEC50 (MM1S cells),pEC50 (H2171 cells),"cellular activity/potency in cellular proliferation assay (MM1S cells; MM1.S, prodrug relative to free acid (FIG. 3, FIG. 4))"
CC(=O)OCOC(=O)c1ccccc1N1CCOCC1 [Compound 152],4.14,2.61,4.64,–,–,–
CCOC(=O)c1ccc(-n2c(C)ccc2-c2ccccc2)cc1 [Compound 13],4.16,3.84,4.26,–,–,–
Cc1ccc(C)n1-c1c(C(=O)O)cccc1[N+](=O)[O-] [Compound 132],3.19,–,3.51,–,–,–
Cc1c(C)c(C)n(-c2ccccc2C(=O)O)c1C [Compound 138],3.71,–,3.57,–,–,–
Cc1ccc(C)n1-c1ccccc1/C=C/C(=O)O [Compound 69],4.41,3.81,3.94,–,–,–
CCOC(=O)c1ccc(-n2c(CCC(=O)O)ccc2-c2ccccc2)cc1O [Compound 25],4.11,3.86,4.00,–,–,–
Cc1cc(C)c2c(=O)c(/C=N/NC(=O)c3ccc(C(=O)O)c(-n4c(C)ccc4C)c3)coc2c1 [Compound 97],2.98,5.26,–,–,–,–
CC(=O)OCOC(=O)c1cccc(/C=N/NC(=O)c2ccc(C(=O)OCOC(C)=O)c(-n3c(C)ccc3C)c2)c1 [Compound 114],4.93,–,5.92,–,–,–
Cc1ccc(C)n1-c1cc(C(=O)N/N=C/c2ccc(N(C)C)cc2)ccc1C(=O)O [Compound 87],4.06,4.50,–,–,–,–
Cc1ccc(C)n1-c1cc(C(=O)N/N=C\c2ccc(S(=O)(=O)O)cc2)ccc1C(=O)O [Compound 123],–,6.54,4.02,–,–,–
Cc1ccc(C)n1-c1cccc(C(=O)c2ccccc2)c1C(=O)O [Compound 136],–,4.02,3.67,–,–,–
Cc1ccc(C)n1-c1ccc(C(=O)O)cc1O [Compound 7],–,4.63,3.91,–,–,–
Cc1ccc(-c2ccccc2)n1-c1ccc(O)c(C(=O)O)c1 [Compound 12],4.10,4.21,3.91,–,–,–
COc1cc(-n2c(C)ccc2C)c(Cl)cc1C(=O)O [Compound 131],–,3.31,2.47,–,–,–
CC(=O)OCOC(=O)c1ccc(-n2c(C)ccc2C)cc1O [Compound 143],–,4.04,–,3.79,4.18,–
Cc1ccc(C)n1-c1cc(C(=O)NN)ccc1C(=O)O [Compound 70],2.91,5.16,–,–,4.36,–
Cc1cc(C(=O)O)ccc1-n1c(C)ccc1C [Compound 11],–,4.34,4.22,–,–,–
Cc1cccc(Nc2ccccc2C(=O)O)c1C [Compound 153],3.73,3.39,4.03,–,–,–
Cc1ccc(C)n1-c1cc(C(=O)O)ccc1C(=O)O [Compound 157],1.96,–,–,–,–,–
Cc1ccc(C)n1-c1cc(C(=O)N/N=C/c2c(Cl)ncnc2Cl)ccc1C(=O)O [Compound 88],2.09,5.31,–,–,–,–
CC(=O)OCOC(=O)c1ccccc1-n1ccnc1C [Compound 151],3.81,–,4.36,–,–,–
Cc1ccc(C)n1-c1ccccc1S(=O)(=O)O [Compound 128],3.61,3.60,3.52,–,–,–
CC(=O)Nc1ccc(-n2c(C)ccc2C)c(C(=O)O)c1 [Compound 155],3.65,5.74,3.61,–,–,–
Cc1ccc(C)n1-c1ccc(Cl)cc1C(=O)O [Compound 147],–,4.94,3.77,–,–,–

Structure (SMILES),"pEC50 (MM1S cells; Homo sapiens, MM1.S, 72 h)",pIC50 (c-Myc/Max/Ebox DNA),"pEC50 (H2171 cells; Homo sapiens, NCI-H2171, 72 h)",pEC50 (MM1S cells),pEC50 (H2171 cells),"cellular activity/potency in cellular proliferation assay (MM1S cells; MM1.S, prodrug relative to free acid (FIG. 3, FIG. 4))"
Cc1ccc(C)n1-c1cc(C(=O)N/N=C/c2c[nH]c3cc(F)ccc23)ccc1C(=O)O [Compound 96],–,4.46,4.42,–,–,–
CC(=O)OCOC(=O)c1ccccc1N1CCN(C)CC1 [Compound 159],3.68,–,4.08,–,–,–
Cc1ccc(C)n1-c1cc(C(=O)N/N=C/c2ccc3ccccc3n2)ccc1C(=O)O [Compound 90],4.28,4.76,–,–,–,–
CC(=O)Oc1cc(-n2c(C)ccc2C)ccc1C(=O)O [Compound 66],2.45,–,4.17,–,–,–
CC(=O)OCOC(=O)c1ccc(C(=O)N/N=C/c2c(CO)cnc(C)c2O)cc1-n1c(C)ccc1C [Compound 111],4.66,–,5.62,–,–,–
Cc1ccc(C)n1-c1cc(C(=O)N2CCOCC2)ccc1C(=O)O [Compound 75],–,5.07,3.94,–,–,–
Cc1ccc(C)n1-c1cc(C(=O)N/N=C\c2ccc(C(=O)O)s2)ccc1C(=O)O [Compound 122],–,6.31,3.76,–,–,–
CC(=O)OCOC(=O)c1ccc(C(=O)N/N=C/c2ccc(-c3nnn[nH]3)cc2)cc1-n1c(C)ccc1C [Compound 109],5.00,–,5.99,–,–,–
Cc1ccc(C)n1-c1cc(C(=O)NN)ccc1C(=O)O [Compound 142],–,5.12,–,3.20,–,–
CC(=O)OCOC(=O)c1cccc(/C=N/NC(=O)c2ccc(C(=O)OCOC(C)=O)c(-n3c(C)ccc3C)c2)c1 [acetomoxymethyl ester prodrug],–,–,–,–,–,increases cellular potency
Cc1ccc(C)n1-c1ccc(C(=O)O)c([N+](=O)[O-])c1 [Compound 163],4.01,3.81,–,–,–,–
COC(=O)c1ccc(-n2cccc2)cc1O [Compound 9],3.90,–,3.64,–,–,–
CC(=O)OCOC(=O)c1ccc(C(=O)N/N=C/c2ccc3cccnc3n2)cc1-n1c(C)ccc1C [Compound 115],4.87,–,6.04,–,–,–
CC(=O)OCOC(=O)c1ccc(-n2c(C)ccc2C)cc1O [Compound 113],–,–,–,4.96,5.55,–
Cc1ccc(C)n1-c1cc(C(=O)N/N=C/c2cc(F)ccc2C(F)(F)F)ccc1C(=O)O [Compound 91],2.37,5.40,–,–,–,–
O=C(O)c1ccccc1-n1c2ccccc2c2ccccc21 [Compound 141],3.83,–,3.57,–,–,–
Cc1ccc(C)n1-c1ccccc1C(N)=O [Compound 133],3.35,–,–,–,–,–
CC(=O)OCOC(=O)c1ccc(C(=O)N/N=C/c2ccc(S(=O)(=O)O)o2)cc1-n1c(C)ccc1C [Compound 112],5.03,–,5.98,–,–,–
Cc1ccc(C)n1-c1cc(C(=O)N/N=C/c2ncc[nH]2)ccc1C(=O)O [Compound 81],–,5.57,3.97,–,–,–
Cc1ccc(C)n1-c1cnccc1C(=O)O [Compound 135],3.52,2.17,–,–,–,–
CC(=O)OCOC(=O)c1ccc(-n2c(C)ccc2C)cc1O [Compound 144],–,–,–,3.35,–,–
Cc1ccc(C)n1-c1cc(C(=O)N/N=C/c2ccc3cccnc3n2)ccc1C(=O)O [Compound 105],3.93,5.53,–,–,–,–
Cc1ccc(C)n1-c1cc(C(=O)N/N=C/c2cncnc2)ccc1C(=O)O [Compound 93],3.58,5.25,–,–,–,–
Cc1ccc(C)n1-c1cc(C(=O)N/N=C/c2cc(F)c(F)c(F)c2)ccc1C(=O)O [Compound 107],–,5.03,4.49,–,–,–
